# Experimental data reported in US20140356343A1, “COMPOSITION FOR TREATING PARKINSON'S DISEASE” (priority 2011, published 2014).
# Like-named read-outs stand apart in the source and are kept apart here. No end group written: not given here.
# Tested on: unilateral 6-hydroxydopamine (6-OHDA) lesioned rat
# Format: in vivo, Male Sprague-Dawley rats
# Settings: for effect on onset of rotational action of apamin: given with apamin
# Description: The potential antiparkinsonian activity of apitoxin (bee venom; Alyostal®), and certain of its constituents such as apamin, melittin, hyaluronidase, and others were investigated in the standard, unilateral 6-hydroxydopamine (6-OHDA) lesioned rat model, in animals responding to an apomorphine challenge, according to the method previously described with minor modifications (Oh J D, Chartisathian K, Ahmed S M, and Chase T N. (2003) J of Neurosci. Res. 72, 768-780, Oh J D, Chartisathian K, Chase T N and Butcher L L, (2000) Brain Res. 853, 174-185, Oh J D and Chase T N. (2002) Amino Acids 23, 133-139, Oh J D, Del Dotto P, Chase T N. (1997) Neurosci Lett. 228, 5-8, Oh J D, Geller A I, Zhang G, Chase T N. (2003) Br. Res. 971, 18-30, Oh J D, Russell D, Vaughan C L and Chase T N. (1998) Br. Res. 813, 150-159.). Conventional anti-parkinsonian dopamine (DA) agonists, apomorphine, amphetamine, and L-dopa were used as comparator drugs. Control animals received vehicle, phosphate buffered saline (PBS). Rotation (turning) behavior in response to drug challenge was used as a predictor of anti-parkinson activity. All compounds or vehicle were administered either subcutaneously (s.c.) or intraperitonealy (i.p.).
# The anti-parkinson activity of various test substances was studied as previously described 1-6. Male Sprague-Dawley rats weighing approximately 300 g were housed with free access to food and water. Under […] (50 mg/kg, i.p.), the nigrostriatal pathway was unilaterally lesioned by administering 6-OHDA HCl (8 μg in 4 μL of saline with 0.02% ascorbate) into the left medial forebrain bundle (AP −5.0, L 1.3, V 8.0 from the dura mater). Following surgery, rats were challenged with apomorphine (0.1 mg/kg, s.c.), to confirm the lesion of nigro-striatal pathway. Rats that responded to apomorphine were kept for further testing.
# Rats received test drugs, comparator drugs, or vehicle on post-surgical Week 3 following 6-OHDA lesioning and subsequently for additional […] (Week 4-10 post-surgery).
# Rotation behavior was measured by placing rats in a rotometer and measuring turning behavior over 5-minute periods (5-min bins). To measure rotation behavior, each animal was placed at least 10 minutes prior to the drug or vehicle administration into a rotometer and turning was measured. Animals then received test drugs, and turning behavior was measured as described above for 4 to 12 hours post-drug administration.
# [1] = PL-A2 alone, approximately 2 and 3 mg/kg i.p.
# [2] = Phospholipase A2 alone, dose range 2 to 3 mg/kg
# [3] = Hyaluronidase alone, dose range 10 to 30 mg/kg
# [4] = Melittin 0.5 to 3 mg/kg with apamin 0.5 to 1.0 mg/kg
# [5] = Melittin alone, dose range 1-3 mg/kg
molecule,measurement,setting,value
"HTGAVLAGV [HTGAVLAGV, reference compound]",Atypical Motor Behaviors,"HTGAVLAGV alone, 1-10 mg/kg",None
Secapin [reference compound],Atypical Motor Behaviors,"Secapin alone, 1-20 mg/kg",None
same,Rotational Response Contralateral,"Secapin alone, 1-20 mg/kg",5 number of turns in 12 hours
same,Rotational Response Ipsilateral,"Secapin alone, 1-20 mg/kg",40 number of turns in 12 hours
same,rotational behavior above baseline (spontaneous rotation),Secapin at 1 to 20 mg/kg,little or no rotational behavior
same,ability similar to apamin to induce a conspicuous turning response,apitoxin component given alone,none
"Tertiapin (ALCNCNRIIIPHMCWKKCGKK; UniProt P56587 1-21, looked up) [apitoxin component, Sigma-Aldrich #T8316, reference compound]",Atypical Motor Behaviors,"Tertiapin alone, 1 and 3 mg/kg",None
same,Rotational Response Contralateral,"Tertiapin alone, 1 and 3 mg/kg",5 number of turns in 12 hours
same,Rotational Response Ipsilateral,"Tertiapin alone, 1 and 3 mg/kg",40 number of turns in 12 hours
same,rotational behavior above baseline (spontaneous rotation),Tertiapin at 1 and 3 mg/kg,little or no rotational behavior
same,ability similar to apamin to induce a conspicuous turning response,apitoxin component given alone,none
"CN1CCc2cccc3c2[C@H]1Cc1ccc(O)c(O)c1-3 [Apomorphine, apomorphine, reference compound]",effect on apamin-induced contralateral rotations,"apomorphine co-administration at less than standard dose, 0.005 mg/kg s.c.",mildly potentiate
"CC(C)C[C@@H]1NC(=O)[C@H](C)NC(=O)[C@H]([C@@H](C)O)NC(=O)[C@H](CCC(=O)O)NC(=O)[C@@H]2CCCN2C(=O)[C@H](C)NC(=O)[C@H](CCCCN)NC(=O)[C@@H]2CSSC[C@@H](C(=O)N[C@@H](CCC(N)=O)C(=O)N[C@@H](CCC(N)=O)C(=O)N[C@@H](Cc3cnc[nH]3)C(N)=O)NC(=O)[C@H](CCCNC(=N)N)NC(=O)[C@H](CCCNC(=N)N)NC(=O)[C@H](C)NC(=O)[C@H](CSSC[C@H](N)C(=O)N[C@@H](CC(N)=O)C(=O)N2)NC1=O [Apamin, apamin]",Atypical Motor Behaviors,Apamin 0.5 mg/kg alone,None
same,Atypical Motor Behaviors,Apamin 1 mg/kg alone,Mild
same,Atypical Motor Behaviors (dose at which seen),apamin alone,≧1.5 mg/kg
same,doses at which abnormal motor behaviors increasingly interfered with normal and rotatory motor behaviors,apamin alone,1.5 to 3.0 mg/kg
same,doses at which abnormal motor behaviors were clinically insignificant,apamin alone,0.75 to 1.50 mg/kg
same,dose at which atypical motor behavior began to appear,"apamin alone, tremors, dystonic postures, alterations in muscular tone, locomotor incoordination",about 1.5 mg/kg
same,therapeutic index compared with apitoxin,"motoric response, apamin alone",lower therapeutic index
Phospholipase A-2 [Phospholipase A2],effect on rotatory response to apamin,0.5 mg/kg apamin and 5 mg/kg PLA-2,potentiated
same,duration of ipsilateral rotations,[1],about 4 hours
same,rotational response,[1],induced ipsilateral rotations
same,start of ipsilateral rotations after administration,[1],1 to 4 h
same,Atypical Motor Behaviors,PL-A2 given alone,No atypical motor behaviors were observed
same,motor response,"PL-A2 given alone, 1 mg/kg i.p.",minimal squirming response
same,effect on onset of turning behavior,PLA-2 given with apamine,accelerated
same,effect on turning behavior,PLA-2 given with apamine,moderately potentiated
same,Atypical Motor Behaviors,[2],None
same,Rotational Response Contralateral,[2],10 number of turns in 12 hours
same,Rotational Response Ipsilateral,[2],50 to 60 number of turns in 12 hours
same,ability similar to apamin to induce a conspicuous turning response,apitoxin component given alone,none
same,effect on onset of rotational action of apamin,,significantly hasten
Hyaluronidase,effect on atypical motor behaviors induced by apamin,1.0 mg/kg apamin and 20 mg/kg hyaluronidase,reduced
same,Atypical Motor Behaviors,[3],None
same,Rotational Response Contralateral,[3],5 number of turns in 12 hours
same,Rotational Response Ipsilateral,[3],40 number of turns in 12 hours
same,ability similar to apamin to induce a conspicuous turning response,apitoxin component given alone,none
same,effect on ipsilateral turning behavior induced by apamin,hyaluronidase 5 to 20 mg/kg i.p. with apamin 0.1 to 1.0 mg/kg,mildly potentiated
same,turning,"hyaluronidase given alone, 0.5 to 30 mg/kg i.p.",did not induce turning
same,effect on atypical motor behaviors observed with higher doses of apamin,"hyaluronidase with apamin, vs apamin given alone",decreased
CC[C@H](C)[C@H](NC(=O)CN)C(=O)NCC(=O)N[C@@H](C)C(=O)N[C@H](C(=O)N[C@@H](CC(C)C)C(=O)N[C@@H](CCCCN)C(=O)N[C@H](C(=O)N[C@@H](CC(C)C)C(=O)N[C@H](C(=O)N[C@H](C(=O)NCC(=O)N[C@@H](CC(C)C)C(=O)N1CCC[C@H]1C(=O)N[C@@H](C)C(=O)N[C@@H](CC(C)C)C(=O)N[C@H](C(=O)N[C@@H](CO)C(=O)N[C@@H](Cc1c[nH]c2ccccc12)C(=O)N[C@H](C(=O)N[C@@H](CCCCN)C(=O)N[C@@H](CCCNC(=N)N)C(=O)N[C@@H](CCCCN)C(=O)N[C@@H](CCCNC(=N)N)C(=O)N[C@@H](CCC(N)=O)C(=O)N[C@@H](CCC(N)=O)C(N)=O)[C@@H](C)CC)[C@@H](C)CC)[C@@H](C)O)[C@@H](C)O)C(C)C)C(C)C [Melittin],effect on rotatory response to apamin,0.25 mg/kg apamin and 0.75 mg/kg melittin,potentiated
same,atypical motor behaviors that apamin usually induces,[4],mild to absence
same,onset of contralateral rotations,[4],faster onset
same,Atypical Motor Behaviors,[5],None
same,Rotational Response Contralateral,[5],10 number of turns in 12 hours
same,Rotational Response Ipsilateral,[5],45 to 50 number of turns in 12 hours
same,ability similar to apamin to induce a conspicuous turning response,apitoxin component given alone,none
same,effect on onset of rotational action of apamin,,significantly hasten
same,rotational response,"melittin alone 0.5 to 10 mg/kg i.p., contralateral more frequent than ipsilateral","modest, intermittent rotational response"
"CC(N)Cc1ccccc1 (centres unmarked) [amphetamine, reference compound]",effect on apamin-induced ipsilateral rotation,amphetamine co-administration at less than the standard dose of 0.05 mg/kg i.p.,mildly potentiate
"NCCc1c[nH]cn1 [histamine, Histamine, reference compound]",ability similar to apamin to induce a conspicuous turning response,"rat, in vivo",none
"Mast Cell Degranulating Peptide (IKCNCKRHVIKPHICRKICGKN; ends and bridges not checked; cysteine pairing not given here; UniProt P01499 28-49, looked up) [apitoxin component, GenScript #RP10663, reference compound]",ability similar to apamin to induce a conspicuous turning response,apitoxin component given alone,none
"N[C@@H](Cc1ccc(O)c(O)c1)C(=O)O [levodopa, reference compound]",effect on apamin-induced contralateral rotations,"levodopa co-administration at less than standard dose, 5 mg/kg i.p.",mildly potentiate
